This is an account of results in article PMC7697191, “Identification of Novel Influenza Polymerase PB2 Inhibitors Using a Cascade Docking Virtual Screening Approach” (Molecules, 2020).

As a reminder, the Kd is the constant that tells how readily two partners part at equilibrium.

One data set addresses H1N1 PB2 CBD (Influenza A virus, UniProt P03427). In words: SPR binding assay on immobilized H1N1 PB2 CBD. The arrangement: species or system influenza A/WSN/1933 (H1N1). The settings on record: Biacore T200, CM5 chip, affinity binding model.
A short description of another data set: in vitro. As to conditions: dog.
Data set [1] deals with A/Hong Kong/8/68 (HK/68, H3N2). Type of data set: cell-based. The settings on record: MDCK cells, CPE inhibition.

Chain of H1N1 PB2 CBD (P03427 318-486 limits assumed): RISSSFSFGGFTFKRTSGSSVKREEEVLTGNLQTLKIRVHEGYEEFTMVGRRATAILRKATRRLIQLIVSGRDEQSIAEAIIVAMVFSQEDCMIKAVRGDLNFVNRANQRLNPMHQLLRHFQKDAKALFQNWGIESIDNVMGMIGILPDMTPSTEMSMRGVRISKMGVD

In turn, `c1cc(Cn2ccnc2-c2nc3c(s2)CCCC3)cc(-c2nnn[nH]2)c1` [12B1] came in with a Kd at H1N1 PB2 CBD of 6770 nM. The same molecule came in with a CC50 at 72 h in “in vitro” above 100 µM.
For `O=C(NCc1nc(C2CCCCC2)no1)c1cc(-c2ccccc2F)n[nH]1` [11C8], in that order: 6160 nM and above 100 µM.
In “in vitro”, `CCC(CC)O[C@@H]1C=C(C(=O)O)C[C@H](N)[C@H]1NC(C)=O` [OC, Oseltamivir carboxylate, reference compound] came in with a CC50 at 72 h above 100 µM.
For the molecule `NS(=O)(=O)CCCC(=O)NCc1ccc2[nH]c3c(c2c1)CCCCCC3` [13D7], the affinity at H1N1 PB2 CBD, expressed as Kd, was 1130 nM. In the data set “in vitro”, this molecule returned a CC50 at 72 h above 100 µM.
`Cc1cccnc1CCNc1nc2nonc2nc1NCc1cccs1` [21B1] yielded a Kd at H1N1 PB2 CBD of 1950 nM. The “activity against the A/Hong Kong/8/68 (HK/68, H3N2) strain, in words” value in data set [1] is on record as “no activity”. The CC50 at 72 h in the data set “in vitro” was above 100 µM.
As for `CCSc1ncc(-c2cc(-c3c(C)nn(C)c3C)nc(N)c2C#N)cn1` [21A5], the Kd on H1N1 PB2 CBD came to 540 nM. This molecule also had a CC50 at 72 h in the data set “in vitro” above 100 µM.
For `O=C(O)[C@H]1C2CCC(CC2)[C@@H]1Nc1nc(-c2c[nH]c3ncc(F)cc23)ncc1F` [VX-787, reference compound], in that order: 54 nM and above 100 µM.
In turn, `C=CCn1cc(-c2cc(-c3ccc(C(=O)O)cc3)[nH]c(=N)c2C#N)cn1` [12C5] yielded a Kd at H1N1 PB2 CBD of 2440 nM. The CC50 at 72 h in the data set “in vitro” is above 100 µM.
In turn, `Cc1cc(CN2CCOc3c(O)cc(-c4ccccc4Cl)cc3C2)on1` [11C6] displayed a Kd on H1N1 PB2 CBD of 1700 nM. In the data set “in vitro”, this molecule had a CC50 at 72 h above 100 µM.
For `c1csc(CNc2nc3nonc3nc2NCCCN2CCOCC2)c1` [11D2] the same measures were 210 nM and above 100 µM.
For `C=CCn1cc(CNCc2noc(-c3ccc4c(c3)OCO4)n2)c(C)n1` [11D4], in that order: 1870 nM and above 100 µM.
Consider `Cc1c(-c2ccccc2F)[nH]c2ccc(CNC(=O)CCc3cc(O)no3)cc12` [11C5], for which, at H1N1 PB2 CBD, the Kd turned out to be 2260 nM. Further, the CC50 at 72 h in the data set “in vitro” is above 100 µM.
